Measured values taken from BindingDB's records for doi:10.1016/j.ejmech.2018.04.030 (Chungnam National University, 2018).

Experiment: Inhibition of IL-5 in mouse Y16 cells assessed as reduction in cell proliferation after 48 hrs by WST-1 assay

Row | IC50 | SMILES
1 | > 30 µM | COc1ccc(COc2cccc3c2C(=O)/C(=C/c2ccccc2)C3)cc1
2 | 28 µM | O=C1c2c(cccc2OCCc2ccccc2)CC1Cc1cccc(O)c1 (stereo unspecified)
3 | > 30 µM | COc1ccc(COc2cccc3c2C(=O)/C(=C/c2ccc(O)cc2)C3)cc1
4 | > 30 µM | COc1ccc(/C=C2\Cc3cccc(OCc4ccc(OC)cc4)c3C2=O)cc1
5 | > 30 µM | COc1ccc(COc2cccc3c2C(=O)/C(=C/c2ccc(Cl)cc2)C3)cc1
6 | > 30 µM | COc1ccc(COc2cccc3c2C(=O)/C(=C/c2ccc(C)cc2)C3)cc1
7 | > 30 µM | COCOc1ccc(/C=C2\Cc3cccc(OCC4CCCCC4)c3C2=O)cc1
8 | > 30 µM | O=C1/C(=C/c2ccc(O)cc2)Cc2cccc(OCc3ccc([N+](=O)[O-])cc3)c21
9 | > 30 µM | O=C1/C(=C/c2ccc(O)cc2)Cc2cccc(OCC3CCCCC3)c21
10 | > 30 µM | O=C1/C(=C/c2ccc(O)cc2)Cc2cccc(O)c21
11 | > 30 µM | COc1ccc(/C=C2\Cc3cccc(O)c3C2=O)cc1
12 | > 30 µM | O=C1/C(=C/c2ccccc2)Cc2cccc(O)c21
13 | > 30 µM | COc1ccc(/C=C2\Cc3cccc(OCC4CCCCC4)c3C2=O)cc1
14 | > 30 µM | O=C1c2c(O)cccc2CC1Cc1ccc(O)cc1 (stereo unspecified)
15 | > 30 µM | COc1ccc(CC2Cc3cccc(OCC4CCCCC4)c3C2=O)cc1 (stereo unspecified)
16 | 20.5 µM | O=C1c2c(cccc2OCC2CCCCC2)CC1Cc1ccc(Cl)cc1 (stereo unspecified)
17 | 24.5 µM | Cc1ccc(CC2Cc3cccc(OCC4CCCCC4)c3C2=O)cc1 (stereo unspecified)
18 | 4 µM | O=C1c2c(cccc2OCC2CCCCC2)CC1Cc1ccc(O)cc1 (stereo unspecified)
19 | 6 µM | O=C1c2c(cccc2OCC2CCCCC2)CC1Cc1cccc(O)c1 (stereo unspecified)
20 | > 30 µM | O=C1c2c(cccc2OCC2CCCCC2)CC1Cc1ccccc1O (stereo unspecified)
21 | 18 µM | O=C1c2c(cccc2OCCC2CCCCC2)CC1Cc1ccc(O)cc1 (stereo unspecified)
22 | 21 µM | O=C1c2c(cccc2OCc2ccccc2)CC1Cc1ccc(O)cc1 (stereo unspecified)
23 | 26 µM | O=C1c2c(cccc2OCCc2ccccc2)CC1Cc1ccc(O)cc1 (stereo unspecified)
24 | > 30 µM | O=C1c2c(cccc2OCCc2ccccc2)CC1Cc1ccccc1O (stereo unspecified)
25 | 5 µM | O=c1c(Cc2ccc(O)cc2)coc2cccc(OCC3CCCCC3)c12
26 | 17 µM | COCOc1ccc(CC2Cc3cccc(OCC4CCCCC4)c3C2=O)cc1 (stereo unspecified)
